Experimental findings from patent US9244073B2, “Assays for detecting enzymatic activity” (Wellstat Diagnostics, LLC, priority 2011, dated 2016) are described below.

Assay type in all cases: biochemical
For assay [1], the system named is FXa. The experiment in a line: Detecting FXa activity by detection of a neoepitope with TAG Plus anti-FLAG M1 detector antibody (ECL immunoassay). From the text:
FXa activity can be measured using peptides comprising a FXa recognition site (-IEGR-) (SEQ ID NO:1) at their N-terminus followed by an amino acid sequence which can be cleaved “off” by FXa. For example, peptide sequence III, below, can be cleaved by FXa to produce peptide sequence IV below. The FXa cleavage of the peptide bond after the arginine residue of the -IEGR- sequence (SEQ ID NO:1) produces a free NH2 group at the N-terminal of the peptide sequence (sequence IV) and the peptide sequence becomes a new epitope (neoepitope) after cleavage.
A FXa activity calibrator curve was set up in a 96-well U bottom microtiter plate containing 100 μL of a 3-fold serial dilution of FXa at 500, 167, 55.6, 18.5, 6.17, 2.06 and 0.686 ng/mL in an assay buffer [50 mM Tris-HCl (pH 7.4), 100 mM NaCl, 0.5% BSA, 10 mg/mL ciprofloxacin, 0.5% Tween-20 and 7.0 mM CaCl2] and 50 μL of a master mix of FXa detection reagent containing 200 μg/mL of M280-SA beads, 600 ng/mL of a peptide sequence V and 1000 ng/mL of TAG Plus anti-FLAG® M1 antibody (Example 2) in the same assay buffer. The peptide sequence V comprises peptide sequence III and a sequence HHHHHH(mPeg2)(KLCBiot)-amide (SEQ ID NO:9). The HHHHHH(mPeg2) (SEQ ID NO:9), a mini-PEG molecule with 9 carbon polyethylene molecule, serves as a spacer, which was conjugated with a lysine at its C-terminus. A biotin molecule was conjugated to the primary amine group on the side chain of the lysine. The peptide can be captured through the high affinity interaction between biotin and streptavidin molecule.
The plate was incubated on a hot plate (Digital Heatblock, Cat. 12621-100, VWR International, LLC., West Chester, Pa. 19380) at 37° C. for 10 or 20 minutes. After the incubation, the beads were washed once in 150 μL of the PBS-based buffer solution (Example 1) and recovered by attaching a plate magnet to the 96-well plate (LIFESEP™ 96F, Dexter Magnetic Technologies Inc., Elk Grove Village, Ill. 60007). Beads were resuspended in 150 μL of the PBS-based buffer and read in a M1MR analyzer. […] Under both incubation conditions, FXa activities were detectable at 1.00 ng/mL or lower concentrations of FXa (signal/background ≧3.0). This lower detection limit is unexpectedly much better than that achieved in Example 1.

The next assay concerns bovine FX. The experiment in a line: Detecting plasma FIX activity by detecting FXa activity using an immunoassay (ECL). The settings on record: diluted reference plasma. As for the experimental part: A FIX activity calibrator curve was set up in a 96-well U bottom microtiter plate, which was equilibrated to 37° C. in an incubator. All coagulating factor reagents were from Haematologic Technologies, Inc. ((HTI), Essex Junction, Vt.), unless specifically noted. To 50 μL of a factor reagent containing 1.6 nM bovine FXIa (Cat: HCX1A-0160), 0.0681 nM bovine α-thrombin (Cat: BCT-1020), 24.5 nM bovine FX (BCX-1050), […] FVIII (Cat: PRO-318, PROSPEC, Rehovot, Israel), 100 μM phosphorliposome (80% phosphatidylcholine and 20% phosphatidylserine) and 0.75 mM Gly-Pro-Arg-Pro amide (Cat: GPRP-NH2. Sigma, St. Louis; SEQ ID NO:32), 25 μL of a diluted reference plasma (HEMOSIL™ Calibration Plasma, Cat: 0020003700, Diapharma Group Inc., Columbus, Ohio) containing 24.4, 8.13, 2.71, 0.904, 0.301, 0.100 and 0.0335 mU/mL of FIX in the assay buffer (Example 4) were added, mixed and incubated for exactly 10 minutes in a hot plate set at 37° C. After the incubation, to the 75 μL of assay mixture, 50 μL of a master mix of FXa detection reagent (Example 4), containing 200 μg/mL of M280-SA beads, 600 ng/mL of a peptide (peptide sequence III), 1000 ng/mL of TAG Plus anti-FLAG® M1 antibody (Example 2), and 30 μg/mL I-2581 (synthetic thrombin inhibitor, cat: 82110810, DiaPharma Group Inc. West Chester, Ohio 45069) in assay buffer (Example 4) was added and incubated for a final 20 minutes at 37° C. After the incubation, the beads were washed once in 150 μL of a PBS-based buffer solution (Example 3) and were resuspended in 150 μL of the same buffer before beads were read in a M1MR analyzer (BioVeris).

The subject of assay [2] is FXa. As to the kind of experiment: Detecting FXa activity by detection of a neoepitope, competitive immunoassay format (ECL). The settings on record: for % Signal Decrease / Mean Signal: 15 minutes at 37° C. The source says: Another method for detecting FXa activity uses a competitive immunoassay format. For example, peptide sequence VI, below, comprises a FXa recognition site (-IEGR-) (SEQ ID NO:1) at its N-terminus and the peptide sequence IV-amide (DYKDDDDKGS-amide) (SEQ ID NO:4) at its C-terminus. The FXa cleavage of the peptide bond after the arginine residue of -IEGR- (SEQ ID NO:1) sequence produces a neoepitope (SEQ ID NO:4), which can be measured with a TAG Plus-conjugated peptide (sequence VII) and a capture antibody in a competitive immunoassay format.
A FXa activity calibrator curve was set up in a 96-well U bottom microtiter plate containing 100 μL of a 3-fold serial dilution of FXa at 500, 167, 55.6, 18.5, 6.17, 2.06 and 0.686 ng/mL in the assay buffer (Example 4) and 50 μL of a master mix of FXa detection reagent containing 200 μg/mL of M280-SA beads prebound with biotinylated capture antibody (5.0 μg antibody per 1.0 mg of beads) (anti-FLAG® MD, 200 μg/mL of the NH2-IEGRDYKDDDDKGS-amide (Peptide sequence VI; SEQ ID NO:5) and 100 ng/mL of NH2-DYKDDDDKGS-TAG Plus (Peptide sequence VII; SEQ ID NO:4) in the same assay buffer. The plate was incubated on a hot plate (Example 4) at 37° C. for 15 minutes. After the incubation, the beads were washed once in 150 μL of the PBS-based buffer solution (Example 3) and were resuspended in 150 μL of the PBS-based buffer and read in a M1MR analyzer (BioVeris). FXa activities were detectable at 1.0 ng/mL or lower concentrations which produced about a 10% decrease of the background signals (the sample without FXa).

Another assay relates to bovine factor Xa. As to the kind of experiment: Detecting heparin activity with an ECL-based FXa activity immunoassay (with human antithrombin). As for the experimental part: A heparin activity calibrator curve was set up in a 96-well U bottom microtiter plate, which was equilibrated to 37° C. in an incubator. To each well, 25 μL of 100, 50, 25, 12.5, 6.25 and 3.13 mIU/mL heparin prepared from a heparin sodium Salt (Cat: H4784-2500MG, Sigma, St. Louis) and 25 μL of 1.0 IU/mL human antithrombin (from kit of BIOPHEN Heparin Anti-Xa, Ref: 221010, Aniara Diagnostica LLC, Columbus, Ohio) were added and incubated for 2 minutes at 37° C. Then to the mixture, 25 μL of 8.0 μg/mL bovine factor Xa (from kit of BIOPHEN Heparin Anti-Xa, Ref: 221010, Aniara Diagnostica LLC, Columbus, Ohio) was added, followed immediately with 25 μL of a master mix of FXa detection reagent containing 400 μg/mL of M280-SA beads, 1.2 μg/mL of a peptide (peptide sequence V), 2.0 μg/mL of TAG Plus anti-FLAG® M1 antibody (Example 2) and 25 mM CaCl2. The subsequent mixture was incubated for a final 20 minutes at 37° C. After the incubation, the beads were washed once in 150 μL of the PBS-based buffer solution (Example 3) and were resuspended in 150 μL of the same buffer before beads were read in a M1MR Analyzer (BioVeris).
Sequence of bovine factor Xa (P01008 33-464): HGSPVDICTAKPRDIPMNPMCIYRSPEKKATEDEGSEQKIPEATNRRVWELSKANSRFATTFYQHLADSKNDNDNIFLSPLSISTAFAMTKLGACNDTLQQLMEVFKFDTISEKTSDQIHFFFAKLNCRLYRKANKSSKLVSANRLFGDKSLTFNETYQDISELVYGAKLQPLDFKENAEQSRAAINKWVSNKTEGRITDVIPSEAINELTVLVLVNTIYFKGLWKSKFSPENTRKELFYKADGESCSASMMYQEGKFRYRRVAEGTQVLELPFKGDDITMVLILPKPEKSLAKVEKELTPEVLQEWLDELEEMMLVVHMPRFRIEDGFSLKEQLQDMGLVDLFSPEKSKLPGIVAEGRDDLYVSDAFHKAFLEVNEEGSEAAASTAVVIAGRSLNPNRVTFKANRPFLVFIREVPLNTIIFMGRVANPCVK

Setting [3] is: 10 minute incubation, FXa 0.686 ng/mL.
Setting [4] is: 10 minute incubation, FXa 2.06 ng/mL.
[5] abbreviates: 10 minute incubation, FXa 6.17 ng/mL.
Setting [6] is: 10 minute incubation, FXa 18.5 ng/mL.
Setting [7] is: 10 minute incubation, FXa 55.6 ng/mL.
Setting [8] is: 10 minute incubation, FXa 167 ng/mL.
The mark [9] stands for this setting: 10 minute incubation, FXa 500 ng/mL.
Where [10] appears, read: 20 minute incubation, FXa 0.686 ng/mL.
[11] abbreviates: 20 minute incubation, FXa 2.06 ng/mL.
The mark [12] stands for this setting: 20 minute incubation, FXa 6.17 ng/mL.
The mark [13] stands for this setting: 20 minute incubation, FXa 18.5 ng/mL.
[14] abbreviates: 20 minute incubation, FXa 55.6 ng/mL.
The mark [15] stands for this setting: 20 minute incubation, FXa 167 ng/mL.
The mark [16] stands for this setting: 20 minute incubation, FXa 500 ng/mL.

Primed or numbered codes have the meaning given here. KLCBiot = lysine with long-chain biotin conjugated to the side-chain primary amine (Lysine-Long-Chain-Biotin); mPeg2 = hydrophilic 9-atom polyethylene (PEG) spacer; Bz′ = not defined here

Sequence of FXa (P00742 41-179 limits assumed): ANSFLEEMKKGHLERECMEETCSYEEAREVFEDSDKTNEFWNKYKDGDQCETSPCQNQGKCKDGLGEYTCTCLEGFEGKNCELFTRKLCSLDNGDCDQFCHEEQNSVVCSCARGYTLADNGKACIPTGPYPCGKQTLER
Sequence of FXa (P00742 235-488 limits assumed): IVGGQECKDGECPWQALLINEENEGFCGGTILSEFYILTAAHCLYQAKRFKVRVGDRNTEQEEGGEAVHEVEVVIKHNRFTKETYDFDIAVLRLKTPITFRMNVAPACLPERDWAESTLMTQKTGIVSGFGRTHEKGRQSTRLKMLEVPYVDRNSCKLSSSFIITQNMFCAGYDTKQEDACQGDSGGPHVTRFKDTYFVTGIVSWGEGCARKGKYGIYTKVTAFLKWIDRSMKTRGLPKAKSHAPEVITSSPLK

With “Bz-IEGRDYKDDDDKGSHHHHHH(mPeg2)(KLCBiot)-amide ({Bz′}-IEGRDYKDDDDKGSHHHHHH-{mPeg2-KLCBiot-NH2}) [Peptide sequence V]”, the “Mean Signal” value in the assay with FXa [1] (setting [3]) worked out at 856; with FXa [1] (setting [4]), 1427; with FXa [1] (setting [5]), 3105; with FXa [1] (setting [6]), 8793; in the assay on FXa [1] (setting [7]), 33734; in the assay with FXa [1] (setting [8]), 113240. Further, the “Mean Signal” value with FXa [1] (setting [9]) is reported as 298048; in the assay on FXa [1] (setting [10]), 1047; in the assay on FXa [1] (setting [11]), 2109; with FXa [1] (setting [12]) it was 6035; with FXa [1] (setting [13]) it was 20653; with FXa [1] (setting [14]), 73974. Also, the “Mean Signal” value is 224915 in the assay with FXa [1] (setting [15]) and 497703 in the assay with FXa [1] (setting [16]). Further, the Signal/Background is 2.5 in the assay with FXa [1] (setting [3]); 4.1 in the assay on FXa [1] (setting [4]); 9.0 in the assay on FXa [1] (setting [5]); 25 in the assay on FXa [1] (setting [6]); 98 with FXa [1] (setting [7]); 328 in the assay with FXa [1] (setting [8]). Moreover, the Signal/Background with FXa [1] (setting [9]) is given as 864; in the assay on FXa [1] (setting [10]), 3.3; in the assay with FXa [1] (setting [11]) it was 6.6; in the assay with FXa [1] (setting [12]), 19; in the assay with FXa [1] (setting [13]), 65; in the assay on FXa [1] (setting [14]), 232. Also, the Signal/Background with FXa [1] (setting [15]) is reported as 706; in the assay with FXa [1] (setting [16]) it was 1562.
Consider “FIX: FIX in diluted reference plasma (HEMOSIL Calibration Plasma)”, for which the “Mean Signal” value is listed as 3665 in the assay on bovine FX (FIX 0.0335 mU/mL); 4050 in the assay with bovine FX (FIX 0.100 mU/mL); 5626 with bovine FX (FIX 0.301 mU/mL); 8707 in the assay on bovine FX (FIX 0.904 mU/mL); 16884 in the assay on bovine FX (FIX 2.71 mU/mL); 30879 with bovine FX (FIX 8.13 mU/mL). Also, the “Mean Signal” value in the assay with bovine FX (FIX 24.4 mU/mL) turned out to be 40234. The Signal/Background amounted to 1.1 with bovine FX (FIX 0.0335 mU/mL); 1.2 with bovine FX (FIX 0.100 mU/mL); 1.6 with bovine FX (FIX 0.301 mU/mL); 2.5 in the assay with bovine FX (FIX 0.904 mU/mL); 4.9 in the assay with bovine FX (FIX 2.71 mU/mL); 9.0 in the assay with bovine FX (FIX 8.13 mU/mL). This substance showed a Signal/Background in the assay on bovine FX (FIX 24.4 mU/mL) of 11.7.
For the substance “NH2-IEGRDYKDDDDKGS-amide (H-IEGRDYKDDDDKGS-NH2) [Peptide sequence VI]”, the “decrease of the background signals at the detectable FXa concentration” value in the assay with FXa [2] (FXa 1.0 ng/mL or lower, background = sample without FXa) was roughly 10%. The “% Signal Decrease” value was −8.5% in the assay with FXa [2] (Xa 0.686 ng/mL); −22% with FXa [2] (Xa 2.06 ng/mL); −42% in the assay with FXa [2] (Xa 6.17 ng/mL); −60% in the assay on FXa [2] (Xa 18.5 ng/mL); −75% in the assay with FXa [2] (Xa 55.6 ng/mL); −84% with FXa [2] (Xa 167 ng/mL). Also, in the assay with FXa [2] (Xa 500 ng/mL), the “% Signal Decrease” value is given as −89%. For the same substance, the “Mean Signal” value turned out to be 84026 in the assay with FXa [2] (Xa 0.686 ng/mL); 71945 in the assay with FXa [2] (Xa 2.06 ng/mL); 52963 with FXa [2] (Xa 6.17 ng/mL); 36383 in the assay on FXa [2] (Xa 18.5 ng/mL); 22509 with FXa [2] (Xa 55.6 ng/mL); 14300 in the assay with FXa [2] (Xa 167 ng/mL). Besides, in the assay with FXa [2] (Xa 500 ng/mL), the “Mean Signal” value turned out to be 9830.
Consider heparin sodium Salt, for which the “% Signal Decrease” value was −19% in the assay on bovine factor Xa (Heparin 3.13 mIU/mL); −38% in the assay on bovine factor Xa (Heparin 6.25 mIU/mL); −60% in the assay with bovine factor Xa (Heparin 12.5 mIU/mL); −81% with bovine factor Xa (Heparin 25.0 mIU/mL); −93% in the assay with bovine factor Xa (Heparin 50.0 mIU/mL); −97% in the assay on bovine factor Xa (Heparin 100 mIU/mL). Moreover, the “Mean Signal” value in the assay with bovine factor Xa (Heparin 3.13 mIU/mL) is listed as 81999; in the assay with bovine factor Xa (Heparin 6.25 mIU/mL), 62502; in the assay with bovine factor Xa (Heparin 12.5 mIU/mL) it was 40868; in the assay on bovine factor Xa (Heparin 25.0 mIU/mL) it was 19648; in the assay with bovine factor Xa (Heparin 50.0 mIU/mL), 7203; in the assay on bovine factor Xa (Heparin 100 mIU/mL) it was 3322.
